Source: patent publication US4731451A, “N-((2-oxo-3(2H)benzothiazolyl)methyl)-2-chloroacetanilides” (Monsanto Company, priority 1980, dated 1988)

Tests used:
Type in all cases: in vivo
[1] = system: Wheat; test: Pre-emergent herbicidal activity (Table III); note: ranges in brackets are in %
Method in brief: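 Pre-emergence, soil-incorporated cover layer: known amount of test compound (solvent or wettable powder) mixed into fill soil over seeded pans; greenhouse, bottom-watered; fixed-scale percent-injury rating at ~2-3 wk.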

[2] = system: Rice; test: Percent inhibition in transplanted rice (Table VI)
Description: (§1) In Table VI, data is presented showing the effect of said compound on the major Asian rice weeds Echinochloa crusgalli (EC), Monochoria vaginalis (MV), Cyperus serotinus (CS), Eleocharis kuroguwai (EK) and Sagittaria trifolia (ST) in transplanted rice at rates within the range of 0.25-2.0 lb/A (0.28-2.24 kg/ha); observations were made 18 days after treatment.

[3] = system: Cyperus serotinus; test: Percent inhibition of rice weeds in transplanted rice (Table VI); details: 432 h, 18 days after treatment
Description: as §1

[4] = system: Echinochloa crusgalli; test: as above; details: Echinochloa crus-galli, 432 h, 18 days after treatment
Description: as §1

[5] = system: Eleocharis kuroguwai; test: as above; details: 432 h, 18 days after treatment
Description: as §1

[6] = system: Monochoria vaginalis; test: as above; details: Pontederia vaginalis, 432 h, 18 days after treatment
Description: as §1

[7] = system: Sagittaria trifolia; test: as above; details: 432 h, 18 days after treatment
Description: as §1

[8] = system: major Asian rice weeds; test: Selective control of weeds in transplanted rice (summary of Table VI)
Description: as §1

For `CC1=C(N(Cn2c(=O)sc3ccccc32)C(=O)CCl)C(C)CCC1` (stereo not drawn) [Example 1, N-(2,6-dimethyl-1-cyclohexen-1-yl)-N-[(2-oxo-3(2H)-benzothiazolyl)methyl]-2-chloroacetamide], the Herbicidal rating ([1]; 0.0056 kg/ha) was 0 (0-24), the Herbicidal rating ([1]; 0.0112 kg/ha) was 0 (0-24) and the Herbicidal rating ([1]; 0.056 kg/ha) was 0 (0-24). The Herbicidal rating ([1]; 0.28 kg/ha) was 0 (0-24), the Herbicidal rating ([1]; 1.12 kg/ha) was 1 (25-49) and the Herbicidal rating ([1]; 5.6 kg/ha) was 0 (0-24). It also gave an inhibition at 280 g/ha ([2]; Oryza sativa, 432 h, transplanted rice, 0.28 kg/ha, 18 days after treatment) of 0%, an inhibition at 560 g/ha ([2]; Oryza sativa, 432 h, transplanted rice, 0.56 kg/ha, 18 days after treatment) of 0% and an inhibition at 1120 g/ha ([2]; Oryza sativa, 432 h, transplanted rice, 1.12 kg/ha, 18 days after treatment) of 0%. For the same compound, the inhibition at 2240 g/ha ([2]; Oryza sativa, 432 h, transplanted rice, 2.24 kg/ha, 18 days after treatment) was 10%, the “rice injury (rice safety)” value ([2]; at 2.24 kg/ha or more) was no more than 15% and the inhibition at 280 g/ha ([3]; 0.28 kg/ha) was 80%. For the same compound, the inhibition at 560 g/ha ([3]; 0.56 kg/ha) was 90%, the inhibition at 1120 g/ha ([3]; 1.12 kg/ha) was 100% and the inhibition at 2240 g/ha ([3]; 2.24 kg/ha) was 100%. The inhibition at 280 g/ha ([4]; 0.28 kg/ha) was 100%, the inhibition at 560 g/ha ([4]; 0.56 kg/ha) was 100% and the inhibition at 1120 g/ha ([4]; 1.12 kg/ha) was 100%. It also gave an inhibition at 2240 g/ha ([4]; 2.24 kg/ha) of 100%, an inhibition at 280 g/ha ([5]; 0.28 kg/ha) of 100% and an inhibition at 560 g/ha ([5]; 0.56 kg/ha) of 100%. For the same compound, the inhibition at 1120 g/ha ([5]; 1.12 kg/ha) was 100%, the inhibition at 2240 g/ha ([5]; 2.24 kg/ha) was 100% and the inhibition at 280 g/ha ([6]; 0.28 kg/ha) was 100%. It also gave an inhibition at 560 g/ha ([6]; 0.56 kg/ha) of 100%, an inhibition at 1120 g/ha ([6]; 1.12 kg/ha) of 100% and an inhibition at 2240 g/ha ([6]; 2.24 kg/ha) of 100%. For the same compound, the inhibition at 280 g/ha ([7]; 0.28 kg/ha) was 0%, the inhibition at 560 g/ha ([7]; 0.56 kg/ha) was 5% and the inhibition at 1120 g/ha ([7]; 1.12 kg/ha) was 5%. The inhibition at 2240 g/ha ([7]; 2.24 kg/ha) was 5%, the “efficacy as a rice herbicide” value [8] was “particularly efficacious as a rice herbicide” and the selective weed control ([8]; rates as low as 0.28 kg/ha) was “selectively controlled all weeds in the test, except Sagittaria trifolia”.
